In patent publication US20260174682A1, “GAMMA-AMINOBUTYRIC ACID DERIVATIVE COMPRISING POLYCYCLIC STRUCTURE, METHOD FOR PREPARING SAME, AND USE THEREOF” (ZHONGSHAN INSTITUTE FOR DRUG DISCOVERY, SIMM, CAS., priority 2022, published 2026):
Marks after values point to notes of the source that are not given here.

What was measured:
Assay type in all cases: in vivo
[1] = system: Sprague Dawley (SD) rat spared nerve injury (SNI) model; experiment: Analgesic effect in rat spared nerve injury (SNI) chronic neuropathic pain model; conditions: SNI rats
Method: Establishment of the SNI model: Surgery was performed according to an aseptic operation method, and various surgical instruments, including scalpels, tweezers, suture needles/threads, surgical cotton, etc., were disinfected before the surgery. Animals were anesthetized by intraperitoneal injection of a Zoletil™ 50 solution at 50 mg/kg and then placed in lateral decubitus positions. After hair in surgical areas of lower bodies of animals was shaved, the animals were disinfected alternately with iodophor and 75% alcohol. The skin was cut at upper edges of left hind limbs, muscles were bluntly separated to expose a sciatic nerve trunk and 3 branches thereof, i.e., a tibial nerve, a common peroneal nerve and a sural nerve. The tibial nerve and the common peroneal nerve were ligated and cut, and the sural nerve was preserved and maintained intact. After the surgery, wounds were sutured layer by layer, the animals were administered with 25% ampicillin (1 mL/kg) through intraperitoneal injection to prevent infection, and routine nursing was performed. In sham group, only the sciatic nerve and the branches thereof were exposed, the nerves were not ligated and cut, and other operations were the same as those in the model group. Detection of a mechanical pain threshold: A Von-frey test fiber was used to detect the mechanical pain threshold of the sole of an operative side of each animal on day 1, day 3 and day 7 after the surgery, respectively. An “up-and-down” method was used as a method of detecting the mechanical pain threshold at the stimulation intensity of 0.4, 0.6, 1, 2, 4, 6, 8, and 15 g. During the test, the test fiber was used to vertically stimulate the site, close to an outer side, in the sole center of the left hind paw of a rat for 6-8 seconds each time at an interval of 5 seconds. A pain response was shown as an obvious paw withdrawal, paw licking, or paw lifting behavior of the animals during each test. From day 11 after the surgery, the animals were placed in an experimental environment for adaptation, wherein the adaptation was performed continuously for 15 min per day for 3 days. On day 13, a basic value of mechanical pain hypersensitivity was detected after the adaptation was completed. The mechanical pain hypersensitivity was expressed by a 50% paw-withdrawal threshold (PWT) according to a calculation formula of 50% PWT (g)=10^xf+kδ, wherein xf is a log value of a fiber test force, k is a tabular value, and δ is an average spacing of the log value of the fiber test force.
Pharmacodynamic evaluation: According to basic threshold detection results on day 13 after the surgery, the animals in the model group without the mechanical pain hypersensitivity, that is, the PWT was greater than 4 g, were excluded, and the other successfully modeled animals were used for a formal test. On day 14 after the surgery, various compound to be tested were newly formulated. Pregabalin was directly dissolved with 0.9% sodium chloride at a dose of 30 mg/kg to obtain a solution at a desired concentration. (±)—I-7, (±)—I-3 and (±)—I-4 p-toluenesulfonate were also completely dissolved with a 0.9% sodium chloride solution at a dose of 30 mg/kg (calculated by free base). The successfully modeled animals were randomly divided into 5 groups with 8 animals in each group. In addition, 7 animals were selected in the sham group. […] The mechanical pain hypersensitivity response of the left hind paw was detected at 1 h, 2 h, 4 h, 6 h, 8 h, 10 h, and 24 h after the administration. Evaluation was performed by using a blind method, and a detection method was the same as above. An area under a mechanical pain threshold-time curve (AUC) was calculated using GraphPad Prism Version 8.0.1 software.

[2] = system: mouse maximum electroshock model (MES); experiment: Antiepileptic effect in mouse maximum electroshock model (MES); conditions: gavage; for Number of animals with tonic straightening of hind limbs/total number of detected animals / Protection rate (%): MES, ICR mice
Method: A negative vehicle control group, a positive drug control group (pregabalin and gabapentin) and a test group of the compounds of the present application were set. Male ICR mice with a body weight of […] were selected. […] After fasted for 12 h, the mice were administered the compounds of the present application or the control drugs according to the body weight, and then subjected to electrical stimulation to induce generalized tonic-clonic seizure behaviors after a certain lime interval (2 h for pregabalin, 1 h for gabapentin, and 3 h for the compounds of the present application). A YLS-9A electrophysiological stimulator (Shanghai Xinruan Information Technology Co., Ltd.) was used in an induction model, and parameters were set as follows: configuration 8, stimulation voltage 160 V, wave number 90. When the electrical stimulation was performed, ears on both sides of the mice were firstly wiped with normal saline and then given the electrical stimulation for 1 lime with ear clip electrodes. Tonic straightening of hind limbs was used as a standard for epilepsy seizures. The animals with the tonic straightening of hind limbs were regarded as not being protected by the drugs, and the animals without the tonic straightening of hind limbs were regarded as being protected by the drugs. Response situations of the animals were observed and recorded, and obtained data were counted to calculate protection rates of the compounds.
Median effective doses (ED50) of the compounds to be tested for animal protection were calculated by a least square method (Graphpad Prism 5) with an administration dose-protection rate curve.

[3] = system: mouse 6-Hz psychomotor seizure model; experiment: Antiepileptic effect in mouse 6-Hz psychomotor seizure model; conditions: 6-Hz model, C57BL/6 mice, gavage
Method: A negative vehicle control group, a positive drug control group (pregabalin and gabapentin) and a test group of the compounds of the present application were set. Male C57BL/6 mice with a body weight of 20±2 g were selected. […] After fasted for 12 h, the mice were administered the compounds of the present application or the control drugs, and then subjected to 6-Hz electrical stimulation to induce epilepsy seizure behaviors after a certain time interval (2 h for pregabalin, 1 h for gabapentin, 1 h for levetiracetam, and 3 h for the compounds of the present application). In an induction model, when the stimulation was performed with a Model 4100 stimulator (A-M Systems, the United States), rear necks of the mice were immobilized by hands on a feeding cage, a corneal electrode was moisten with normal saline and allowed to gently contact bilateral corneas of the mice, the electrical stimulator was trod by a foot to give the mice the electrical stimulation with a stimulation parameter of 6-Hz, a one-way square wave of 32 mA, a wave width of 0.2 ms and a stimulation duration of 3 sec, and timing was performed with a stopwatch during the stimulation. After the electrical stimulation was completed, the mice with the seizure behaviors lasting for less than 7 sec were regarded as being protected by the drugs, and the mice with the seizure behaviors lasting for more than 7 sec were regarded as being not protected from the epilepsy by the drugs. Response situations of the animals were observed and recorded, and obtained data were counted to calculate protection rates of the compounds.
Statistical method: The protection rates of different administration groups were separately compared with that of the vehicle control group to carry out a Fisher's exact test.

[4] = oral gavage 10 mg/kg (calculated by free base), from AUC of mechanical pain threshold-time curve to 24 h
[5] = dose 3 mg/kg (own compounds calculated by free base)
[6] = dose 6 mg/kg (own compounds calculated by free base)
[7] = dose 10 mg/kg (own compounds calculated by free base)
[8] = dose 18 mg/kg (own compounds calculated by free base)
[9] = dose 30 mg/kg (own compounds calculated by free base)
[10] = dose 60 mg/kg (own compounds calculated by free base)
[11] = dose 60 mg/kg (calculated by free base)

Q: Which results are given for CC(C)C[C@H](CN)CC(=O)O [Pregabalin]?
A: maximum possible effect (MPE) [1, 4]: 23.04%; maximum possible effect (% MPE) ([1]; oral gavage 30 mg/kg (calculated by free base), from AUC of mechanical pain threshold-time curve to 24 h): 110.90%; Number of animals with tonic straightening of hind limbs/total number of detected animals [2, 5]: 9/12; Protection rate (%) [2, 5]: 25%; Number of animals with tonic straightening of hind limbs/total number of detected animals [2, 6]: 10/12; Protection rate (%) [2, 6]: 16.67%; Number of animals with tonic straightening of hind limbs/total number of detected animals [2, 7]: 6/12; Protection rate (%) [2, 7]: 50%; Number of animals with tonic straightening of hind limbs/total number of detected animals [2, 8]: 5/12; Protection rate (%) [2, 8]: 58.33%; Number of animals with tonic straightening of hind limbs/total number of detected animals [2, 9]: 4/20; Protection rate (%) [2, 9]: 80%; Number of animals with tonic straightening of hind limbs/total number of detected animals [2, 10]: 1/12; Protection rate (%) [2, 10]: 91.66%; ED50 ([2]; Mus musculus, po, MES mice, least square fit of administration dose-protection rate curve, read-out: Median effective dose (ED50) for animal protection): 12 mg/kg; Number of animals with clonic seizures/total number ([3]; dose 30 mg/kg): 1/6**; Protection rate (%) ([3]; dose 30 mg/kg): 83.3 *** %

Q: With Cc1ccc(S(=O)(=O)O)cc1.NCC1(CC(=O)O)CC2C3C=CC(C3)C21 (single isomer, unassigned; (+)) [(+)-I-4 p-toluenesulfonate] as the molecule, how does the “area under the mechanical pain threshold-time curve compared with the vehicle control group” value ([1]; oral gavage 10 mg/kg (calculated by free base)) read?
A: The value was “significantly improved”.

Q: What about the “maximum possible effect (MPE)” value [1, 4] of the same molecule?
A: Its value is 69.09%.

Q: What about the “Median effective dose (ED50) for animal protection” value ([2]; MES mice, least square fit of administration dose-protection rate curve) of the same molecule?
A: The value was 21.51 mg/kg.

Q: And the “Number of animals with tonic straightening of hind limbs/total number of detected animals” value [2, 5]?
A: Its value is 7/8.

Q: And the “Protection rate (%)” value [2, 5]?
A: Its value is 12.5%.

Q: What about the “Number of animals with tonic straightening of hind limbs/total number of detected animals” value [2, 6] of the same molecule?
A: Its value is 6/8.

Q: What about the “Protection rate (%)” value [2, 6] of the same molecule?
A: Its value is 25%.

Q: What about the “Number of animals with tonic straightening of hind limbs/total number of detected animals” value [2, 7] of the same molecule?
A: Its value is 7/8.

Q: And the “Protection rate (%)” value [2, 7]?
A: Its value is 12.5%.

Q: And the “Number of animals with tonic straightening of hind limbs/total number of detected animals” value [2, 8]?
A: Its value is 7/12.

Q: And the “Protection rate (%)” value [2, 8]?
A: Its value is 41.7%.

Q: What about the “Number of animals with tonic straightening of hind limbs/total number of detected animals” value [2, 9] of the same molecule?
A: The value was 3/8.

Q: And the “Protection rate (%)” value [2, 9]?
A: Its value is 62.5%.

Q: And the “Number of animals with tonic straightening of hind limbs/total number of detected animals” value [2, 10]?
A: The value was 1/6.

Q: What about the “Protection rate (%)” value [2, 10] of the same molecule?
A: Its value is 83.3%.

Q: And the “Number of animals with clonic seizures/total number” value [3, 11]?
A: The value was 2/4.

Q: And the “Protection rate (%)” value [3, 11]?
A: The value was 50.0 * %.
